Experimental data reported in patent US20020071872A1, “Laxative composition” (priority 1999, published 2002).

Columns and labels:
fecal output = settings: 10-100 mg/kg bisacodyl given orally, rat; cited from earlier work
large intestinal transit = settings: 50 mg/kg bisacodyl given orally, rat; cited from earlier work
small bowel transit = assay: Small bowel (small intestinal) transit of a charcoal marker in rats; assay type: in vivo, rat
Procedure: A study was performed to characterize and compare the effects of bisacodyl, simethicone and combinations of bisacodyl and simethicone on small bowel transit time. Small intestinal transit time was studied as a surrogate for […] in the rat. Leng-Peschlow, E., “Effect of Sennosides A+B and Bisacodyl on rat large intestine”, Pharmacology, vol. 38 (1989), 310-318 (1989). […] The prokinetic efficacy of bisacodyl in the small intestine may differ from that observed in the large intestine by Leng-Psechlow. For the small intestinal transit model a sub-therapeutic dose of 25mg/kg bisacodyl was chosen. Rats were dosed with a suspension of powdered charcoal, which served as a non-absorbable marker. The rats were also dosed with bisacodyl USP 23 (ZetaPharm, Inc.) and simethicone supplied as […]® drops and activated charcoal (Sigma Chemical). Six treatments were compared a control; simethicone 15 mg/kg; bisacodyl 25 mg/kg; and bisacodyl 25 mg/kg and simethicone at 5, 10 or 15 mg/kilogram. Dosing preparations of charcoal suspension (10 weight percent) were made freshly each day by adding dry powder to 0.5 percent methylcellulose in water and stirring. Dosing preparations were made each day by adding the appropriate quantity of bisacodyl and/or simethicone drops to the charcoal suspension. All treatments were administered orally, using the dose volume of 10 milliliters per kilogram. Sixty minutes after dosing, the rats were sacrificed and small bowel transit rate was determined by identifying the charcoal marker and measuring its distance from the pylorus.

CC(=O)Oc1ccc(C(c2ccc(OC(C)=O)cc2)c2ccccn2)cc1 [Bisacodyl, bisacodyl]
fecal output (fecal output): increased fecal output | large intestinal transit (large intestinal transit): significantly stimulated | Mean % traveled (small bowel transit; bisacodyl 25 mg/kg oral, rat, charcoal marker, 60 min after dosing): 80.7% | % Increase (small bowel transit; compared to vehicle control, bisacodyl 25 mg/kg oral, rat): 1% | small bowel transit compared with control (small bowel transit; rats treated with simethicone alone or bisacodyl alone): not different from control
